From US20100234351A1, “FUSED NITROGEN-COMPRISING HETEROCYCLIC COMPOUND” (TAKEDA PHARMACEUTICAL COMPANY LIMITED, priority 2006, published 2010) come the findings set out here.

By IC50 is commonly meant the concentration that inhibits the measured activity by half.

Structures can show the parent of a compound that is named as a salt. Where only a bound is given, the exact number is not on record here.

The target of experiment [1] is T1, EGFR intracellular domain (Homo sapiens, UniProt P00533).
T1 construct: made in house; host or cells: SF-21 insect cells infected with recombinant baculovirus BAC-EGFR
Put plainly: Assay of EGFR kinase inhibitory activity. It counts as biochemical. The note with it: compound 1.0 μM, poly-Glu:Tyr (4:1) substrate, [γ-32P]ATP, read-out: Inhibitory rate (%) at 1.0 μM. On the procedure:
Human EGFR gene was cloned by RT-PCR using total RNA prepared from A431 cell as a template. The primer used for RT-PCR was prepared from base sequence (Genbank Accession No. X00588) information of EGFR gene, adding DYKDDDD base sequence encoding the peptide and a restriction enzyme recognition sequence to a base sequence (2191-3819 of Genbank Accession No. X00588 as a base, and corresponding to 669-1210 amino acid of Genbank Accession No. NP_005219 as a protein) encoding the EGFR intracellular domain, so that a DYKDDDD peptide tag would be attached to the N-terminus of the protein. The base sequence of the primer is shown in below.
The RT reaction was performed using Superscript First-Strand Synthesis System for RT-PCR (Invitrogen), and PCR reaction was performed using KOD-plus kit (TOYOBO). The obtained PCR product was electrophoresed on agarose gel (1%), and the DNA fragment amplified by PCR was recovered from the gel, and then digested with restriction enzymes Sal I and Sph I. The DNA treated with the restriction enzymes was electrophoresed on agarose gel (1%), and the obtained DNA fragment was recovered and ligated to plasmid pFASTBAC1 (Invitrogen) digested with restriction enzymes Sal I and Sph I to give expression plasmid pFB-EGFR. The base sequence of the inserted fragment was confirmed and found to be identical with the base sequence of the EGFR intracellular domain (2191-3819 of Genbank Accession X00588). Furthermore, virus stock BAG-EGFR of recombinant Baculovirus was prepared using BAC-TO-BAC Baculovirus Expression System (Invitrogen).
SF-21 cells were sown at 1×10^6 cells/mL to 1 L of Sf-900II SFM medium (Invitrogen) containing 10% fetal calf serum (trace), 50 mg/L Gentamicin (Invitrogen) and 0.1% Pluronic F-68 (Invitrogen), and cultured with shaking in a 2 L Erlenmeyer flask at 27° C., 100 rpm. After culture for 24 hr, recombinant Baculovirus BAC-EGFR (13.4 mL) was added thereto, and the cells were further cultured for 3 days. The culture medium was centrifuged at 2,000 rpm for 5 min to give virus infected cells. The infected cells were washed with phosphate buffered saline (Invitrogen), centrifuged under the same conditions, and preserved at −80° C. The cryopreserved cells were thawed in ice and suspended in 30 mL of buffer A containing Complete Protease Inhibitor (Boehringer) (50 mM tris buffer (pH 7.4) containing 20% Glycerol, 0.15 M NaCl). The cells were disrupted 3 times at 20,000 rpm for 30 sec using a polytron homogenizer (Kinematica). The disrupt was clarified by centrifugation at 40,000 rpm for 30 min and filtered through a 0.45 μm filter. The filtrate was passed through a column packed with 4 mL of Anti-FLAG M2 Affinity Gel (Sigma Aldrich Co.) at a flow rate of about 0.5 mL/min. The column was washed with buffer A, and eluted with buffer A containing 100 μg/mL of FLAG peptide. The eluate was concentrated with Vivaspin 20 having a molecular weight cut off of 30 K (Vivascience). The concentrate was purified by gel filtration using Hi-Load 16/60 Superdex 200 pg (GE Healthcare Bioscience) equilibrated with buffer A. The fractions containing EGFR intracellular domain were collected and cryopreserved at −80° C.
EGFR kinase reaction was carried out using a 96-well plate. As a buffer for Kinase reaction, a buffer of a composition of 50 mM Tris-HCl (pH 7.5), 5 mM MnCl2, 2 mM dithiothreitol and 0.01% Tween-20 was used. […]

The subject of experiment [2] is human breast cancer cell BT-474. Put plainly: Inhibitory action on breast cancer cell BT-474 proliferation in vitro. Particulars: 120 h, BT-474 cells, cultured 5 days with compound, SRB staining of cell protein. It counts as cell-based. On the procedure: A suspension of human breast cancer cell BT-474 (100 μl (6,000 cells)) were plated to 96-well microplate and cultured in an incubator (37° C., 5% carbon dioxide). On the following day, 100 μl of a solution of each test compound previously diluted serially in 2-fold, was added to give indicated dose, and the cells were cultured for 5 days. The culture medium containing the test compound was removed, and the cells were washed, and fixed with 50% trichloroacetic acid, and 0.4% w/v) SRB solution (dissolved in 1% acetic acid) was added to stain the cell protein (Skehan et al., Journal of the National Cancer Institute, Vol. 82, pp. 1107-1112, 1990). After washing with a 1% acetic acid solution, 100 μl of Tris solution (10 mM) was added to extract the pigment and the absorbance was measured at a wavelength of 550 nm to quantify the amount of cells as protein content. Taking as 100% the protein content for the control group, which received no test compound solution, the ratio of the residual protein content for each treatment group was determined, and the compound concentration required to achieve 50% suppression of the residual cell content relative to the control (IC50 value) was calculated.
Background: In SRB staining, fixed cells bind dye roughly in proportion to their protein.

The target of experiment [3] is T2, HER2 intracellular domain (Homo sapiens, UniProt P04626).
T2 construct: made in house; host or cells: SF-21 insect cells infected with recombinant baculovirus BAC-HER2
Put plainly: Measurement of HER2 kinase inhibitory activity. Particulars: compound 1.0 μM, poly-Glu:Tyr (4:1) substrate, [γ-32P]ATP, read-out: Inhibitory rate (%) at 1.0 μM. It counts as biochemical. Here is the method:
Human HER2 gene was cloned by RT-PCR using total RNA prepared from MCF7 cells as a template. The primer used for RT-PCR was prepared from base sequence (Genbank Accession No. M11730) information of HER2 gene, adding base sequence encoding DYKDDDD peptide and a restriction enzyme recognition sequence to a nucleotide sequence (2176-3918 of Genbank Accession No. M11730 as a base, and corresponding to 676-1255 amino acid of Genbank Accession No. NP_004439 as a protein) encoding the HER2 intracellular domain region, so that a DYKDDDD peptide tag would be attached to the N-terminus of the protein. The base sequence of the primer is shown in below.
The RT reaction was performed using Superscript First-Strand Synthesis System for RT-PCR (Invitrogen) and the PCR reaction was performed using KOD-plus kit (TOYOBO). The obtained PCR product was electrophoresed on agarose gel (1%), and the DNA fragment amplified by PCR was recovered from the gel, and then digested with restriction enzymes Sal I and Sph I. The DNA treated with the restriction enzymes was electrophoresed on agarose gel (1%), and the obtained DNA fragment was recovered and ligated to plasmid pFASTBAC1 (Invitrogen) digested with restriction enzymes Sal I and Sph I to give expression plasmid pFB-HER2. The base sequence of the inserted fragment was confirmed and found to be identical with the base sequence of HER2 intracellular domain (2176-3918 of Genbank Accession M11730). Furthermore, using BAC-TO-BAC Baculovirus Expression System (Invitrogen), recombinant baculovirus BAC-HER2 was prepared.
SF-21 cells were sown at 1×10^6 cells/mL to 1 L of Sf-900II SFM medium (Invitrogen) containing 10% fetal calf serum (trace), 50 mg/L gentamicin (Invitrogen) and 0.1% Pluronic F-68 (Invitrogen), and cultured with shaking in 2 L volume Erlenmeyer flask at 27° C., 100 rpm. After culturing for 24 hr, recombinant baculovirus BAC-HER2 (13.4 mL) was added thereto, and the cells were further cultured for 3 days. The culture medium was centrifuged at 2,000 rpm for 5 min to give virus-infected cells. The infected cells were washed with phosphate buffered saline (Invitrogen), centrifuged under the same conditions, and preserved at −80° C. The cryopreserved cells were thawed in ice and suspended in buffer A (50 mM Tris buffer (30 mL, pH 7.4) containing 20% glycerol, 0.15 M NaCl) supplemented with Complete Protease Inhibitor (Boehringer). The cells were ruptured 3 times with a Polytron homogenizer (Kinematica) at 20,000 rpm for 30 sec. The disrupt was clarified by centrifugation at 40,000 rpm for 30 min and filtered with a 0.45 μm filter. The filtrate was passed through a column packed with Anti-FLAG M2 Affinity Gel (4 mL, Sigma Aldrich CO.) at a flow rate of about 0.5 mL/min. The column was washed with buffer A, and eluted with buffer A containing 100 μg/mL of FLAG peptide. The eluate was concentrated with Vivaspin 20 (Vivascience) having a molecular weight cut off of 30K. The concentrate was purified by gel filtration using Hi-Load 16/60 Superdex 200pg (GE Healthcare Bioscience) equilibrated with buffer A. The fractions containing HER2 intracellular domain were collected and cryopreserved at −80° C.
HER2 kinase reaction was carried out using 96-well plate. As a buffer for Kinase reaction, a buffer of a composition of 50 mM Tris-HCl (pH 7.5), 5 mM MnCl2, 2 mM dithiothreitol and 0.01% Tween-20 was used. The compound of the present invention was dissolved in dimethyl sulfoxide (DMSO), and diluted with a buffer for kinase reaction so that the DMSO concentration would become 0.1% during kinase reaction. The compound solution (10 μL) was mixed with a buffer for kinase reaction (20 μL) containing the HER2 intracellular domain (0.625 μg/mL) obtained in Experimental Example 1B and a polypeptide substrate poly-Glu:Tyr (4:1) (12.5 μg/mL, Sigma Ltd.) and the mixture was stood for 5 min at room temperature. […]

T1 sequence (P00533 669-1210): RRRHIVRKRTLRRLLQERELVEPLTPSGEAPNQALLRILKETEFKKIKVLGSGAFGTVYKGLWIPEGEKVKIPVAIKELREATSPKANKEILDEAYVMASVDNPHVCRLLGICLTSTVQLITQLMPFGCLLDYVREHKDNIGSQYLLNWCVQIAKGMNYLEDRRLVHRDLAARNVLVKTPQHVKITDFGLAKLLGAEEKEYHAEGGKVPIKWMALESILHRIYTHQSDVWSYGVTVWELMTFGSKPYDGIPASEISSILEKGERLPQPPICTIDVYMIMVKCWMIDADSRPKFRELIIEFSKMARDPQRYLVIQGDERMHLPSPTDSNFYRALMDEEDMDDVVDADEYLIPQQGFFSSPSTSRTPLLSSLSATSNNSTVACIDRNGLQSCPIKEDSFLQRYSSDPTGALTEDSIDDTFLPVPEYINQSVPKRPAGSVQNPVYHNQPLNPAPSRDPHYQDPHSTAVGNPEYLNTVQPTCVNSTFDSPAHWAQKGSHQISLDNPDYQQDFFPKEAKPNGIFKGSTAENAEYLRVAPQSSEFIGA
T2 sequence (P04626 676-1255): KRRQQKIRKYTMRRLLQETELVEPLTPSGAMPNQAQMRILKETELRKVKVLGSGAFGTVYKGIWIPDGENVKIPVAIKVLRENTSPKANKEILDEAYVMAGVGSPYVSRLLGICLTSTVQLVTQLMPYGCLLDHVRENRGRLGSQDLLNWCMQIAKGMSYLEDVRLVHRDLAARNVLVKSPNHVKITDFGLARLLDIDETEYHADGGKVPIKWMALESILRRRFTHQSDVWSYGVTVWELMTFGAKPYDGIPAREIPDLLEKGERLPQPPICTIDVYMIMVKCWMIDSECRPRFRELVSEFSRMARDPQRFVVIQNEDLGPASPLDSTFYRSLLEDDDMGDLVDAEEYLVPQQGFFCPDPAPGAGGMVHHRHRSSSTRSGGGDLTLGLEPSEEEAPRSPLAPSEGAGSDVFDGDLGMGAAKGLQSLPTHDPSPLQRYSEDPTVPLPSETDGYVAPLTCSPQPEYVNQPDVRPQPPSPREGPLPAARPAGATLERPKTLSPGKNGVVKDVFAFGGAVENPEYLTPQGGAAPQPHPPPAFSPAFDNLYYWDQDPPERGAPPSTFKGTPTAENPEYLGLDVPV

For `O=C(NCCCn1ccnc1)C1=Cc2c(ncnc2Nc2ccc(Oc3cccc(C(F)(F)F)c3)c(Cl)c2)NCC1` [Example 115, 4-({3-chloro-4-[3-(trifluoromethyl)phenoxy]phenyl}amino)-N-[3-(1H-imidazol-1-yl)propyl]-8,9-dihydro-7H-pyrimido[4,5-b]azepine-6-carboxamide], in experiment [1], the inhibition at 1 µM is 95%. Take `O=C(NCCOCCO)C1=Cc2c(ncnc2Nc2ccc(Oc3cccc(C(F)(F)F)c3)c(Cl)c2)NCC1` [Example 119, 4-({3-chloro-4-[3-(trifluoromethyl)phenoxy]phenyl}amino)-N-[2-(2-hydroxyethoxy)ethyl]-8,9-dihydro-7H-pyrimido[4,5-b]azepine-6-carboxamide]: the inhibition at 1 µM in experiment [1] is 96%. Besides, the half-inhibitory concentration (IC50) in experiment [2] was below 100 nM. Take `COCCOCCNC(=O)C1=Cc2c(ncnc2Nc2ccc(Oc3cccc(C(F)(F)F)c3)c(Cl)c2)NCC1` [Example 122, 4-({3-chloro-4-[3-(trifluoromethyl)phenoxy]phenyl}amino)-N-[2-(2-methoxyethoxy)ethyl]-8,9-dihydro-7H-pyrimido[4,5-b]azepine-6-carboxamide]: the inhibition at 1 µM in experiment [3] was 96%. For the same compound, the IC50 in experiment [2] was below 100 nM. Take `O=C(NCC(O)CO)C1=Cc2c(ncnc2Nc2ccc(Oc3cccc(C(F)(F)F)c3)c(Cl)c2)NCC1` (stereo not drawn) [Example 136, 4-({3-chloro-4-[3-(trifluoromethyl)phenoxy]phenyl}amino)-N-(2,3-dihydroxypropyl)-8,9-dihydro-7H-pyrimido[4,5-b]azepine-6-carboxamide]: the inhibition at 1 µM in experiment [1] came out at 97%.

`O=C(NCCOCCO)C1=Cc2c(ncnc2Nc2ccc(Oc3cccc(Cl)c3)c(Cl)c2)NCC1` [Example 143, 4-{[3-chloro-4-(3-chlorophenoxy)phenyl]amino}-N-[2-(2-hydroxyethoxy)ethyl]-8,9-dihydro-7H-pyrimido[4,5-b]azepine-6-carboxamide hydrochloride]: the inhibition at 1 µM in experiment [1] was 97%. Further, the concentration for half-maximal inhibition (IC50) in experiment [2] is below 100 nM.

Consider `O=C(NCCS(=O)(=O)CCO)C1=Cc2c(ncnc2Nc2ccc(Oc3cccc(C(F)(F)F)c3)c(Cl)c2)NCC1` [Example 147, 4-({3-chloro-4-[3-(trifluoromethyl)phenoxy]phenyl}amino)-N-{2-[(2-hydroxyethyl)sulfonyl]ethyl}-8,9-dihydro-7H-pyrimido[4,5-b]azepine-6-carboxamide], for which the inhibition at 1 µM in experiment [1] stood at 95%.
